Values quoted from earlier work, collected in article PMC11171218, “N-Benzylated 5-Hydroxybenzothiophene-2-carboxamides as Multi-Targeted Clk/Dyrk Inhibitors and Potential Anticancer Agents” (Cancers, 2024).

Biological target: Clk1 (Homo sapiens, UniProt P49759)
Parameters: method as in PMID 28561591, PMID 25221649
Conditions: Figure 1; ref [38],[45]; cited from earlier work

Chain of Clk1 (P49759 whole entry): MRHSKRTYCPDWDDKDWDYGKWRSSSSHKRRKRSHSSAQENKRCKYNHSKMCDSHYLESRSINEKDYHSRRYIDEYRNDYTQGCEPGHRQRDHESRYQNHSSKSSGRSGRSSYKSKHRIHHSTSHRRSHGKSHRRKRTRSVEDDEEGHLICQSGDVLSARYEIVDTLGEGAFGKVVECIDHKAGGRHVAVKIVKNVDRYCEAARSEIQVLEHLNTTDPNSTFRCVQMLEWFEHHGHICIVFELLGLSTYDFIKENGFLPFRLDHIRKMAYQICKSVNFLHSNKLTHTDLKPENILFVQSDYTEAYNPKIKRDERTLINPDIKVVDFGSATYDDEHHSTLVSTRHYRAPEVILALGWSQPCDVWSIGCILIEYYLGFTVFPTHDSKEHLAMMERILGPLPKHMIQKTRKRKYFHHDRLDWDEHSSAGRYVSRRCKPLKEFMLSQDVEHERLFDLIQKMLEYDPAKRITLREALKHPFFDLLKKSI

Row | Structure (SMILES) | IC50
1 | Cc1ccc(C(=O)c2cc3cc(O)ccc3s2)cc1O [Compound (ii)] | 60 nM
2 | CC(=O)c1cc2cc(O)ccc2s1 [Compound (i)] | 50 nM
